Data on four compounds can be found in patent US10023593B2, “ALK kinase inhibitor, and preparation method and uses thereof” (BEIJING PEARL BIOTECHNOLOGY LIMITED LIABILITY COMPANY, priority 2014, dated 2018).

Assay [1] has as its system Karpas-299 cell line. In words: CellTiter-Glo cell proliferation inhibition on Karpas-299 cell line. The format is cell-based. To be noted: Homo sapiens, 96 h, Karpas-299 cells, 5000 cells/well, 4 days drug treatment. Summed up: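 CellTiter-Glo luminescence measured after 4-day compound exposure (0.5% DMSO final) of Karpas-299 cells seeded at 5000/well in RPMI-1640 with 10% FBS, 37 °C, 5% CO2. IC50 derived from percent inhibition relative to vehicle wells.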
(Cellular ATP, detected with luciferase, serves as a proxy for viable cell number.)

Assay [2] deals with NCI-H2228 cell line. In words: CellTiter-Glo cell proliferation inhibition on NCI-H2228 cell line. The class given is cell-based. To be noted: Homo sapiens, NCI-H2228, 96 h, NCI-H2228 cells, 5000 cells/well, 4 days drug treatment. In a few lines:
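NCI-H2228 cells, 5000/well in RPMI-1640 + 10% FBS, treated with compounds 2 h after seeding (0.5% DMSO final) for 4 days at 37° C. Viability by CellTiter-Glo luminescence; inhibition relative to DMSO control, IC50 from curve fit.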

With `Cc1cc(Nc2ncc(Cl)c(Nc3cn(C)nc3S(=O)(=O)C(C)C)n2)c(OC2CC2)cc1[C@H]1CC[C@H](NC2CC2)CC1` [Final product 196], the IC50 – broadly, the concentration that gives 50% inhibition – in assay [1] was 9 nM; in assay [2] it was 88 nM.

For `Cc1cc(Nc2ncc(Cl)c(Nc3cn(C)nc3S(=O)(=O)C(C)C)n2)c(OC2CC2)cc1[C@H]1CC[C@H](NC(C)C)CC1` [Final product 198], the values for the half-inhibitory concentration (IC50) in assay [1] and in assay [2] were 5 nM and 54 nM, respectively.

For the compound `CC(=O)N1CCN([C@H]2CC[C@H](c3cc(OC4CC4)c(Nc4ncc(Cl)c(Nc5cn(C)nc5S(=O)(=O)C(C)C)n4)cc3C)CC2)CC1` [Final product 204], the figures for the IC50 in assay [1] and in assay [2] were 7 nM and 76 nM, respectively.

On to `Cc1cc(Nc2ncc(Cl)c(Nc3cn(C)nc3S(=O)(=O)C(C)C)n2)c(OC2CC2)cc1C1=C(Cl)CN(C)CC1` [Final product 208, 5-chloro-N^2-[4-(5-chloro-1-methyl-1,2,3,6-tetrahydro-pyridin-4-yl)-2-cyclopropoxy-5-methyl-phenyl]-N^4-[1-methyl-3-(isopropylsulfonyl)-1H-pyrazol-4-yl]-pyrimidin-2,4-diamine], for which the IC50 in assay [1] was found to be 35 nM; in assay [2], 152 nM.
